Literature values, collected in patent US20250127693A1, “Materials for Desensitization and Targeted Drug Delivery to Teeth and Gums” (South Dakota Board of Regents, priority 2023, published 2025).

How the values were obtained:
[1] = tested on: cancerous cells
[2] = tested on: mammalian cells; conditions: prolonged exposures

C=CCc1ccc(O)c(OC)c1 [eugenol]
concentration at which eugenol inhibits proliferation of cancerous cells [1]: 82 µg/mL | concentration at which toxicity for mammalian cells starts [2]: 164 µg/mL
